Measurements published in patent US11208412B2 (DAEGU-GYEONGBUK MEDICAL INNOVATION FOUNDATION, priority 2017, dated 2021).

Experiments:
Assay in all cases: Kinase selectivity, DiscoverX scanMAX Kinase assay panel (% control)
Format in all cases: binding
[1] = molecular target: T1, kinases of the scanMAX Kinase assay panel (Homo sapiens, UniProt Q8NE63); conditions: HIPK4; 1 uM
T1 construct: purchased DiscoverX Co. (contract measurement) scanMAX Kinase assay panel
T1 sequence (Q8NE63 1-616): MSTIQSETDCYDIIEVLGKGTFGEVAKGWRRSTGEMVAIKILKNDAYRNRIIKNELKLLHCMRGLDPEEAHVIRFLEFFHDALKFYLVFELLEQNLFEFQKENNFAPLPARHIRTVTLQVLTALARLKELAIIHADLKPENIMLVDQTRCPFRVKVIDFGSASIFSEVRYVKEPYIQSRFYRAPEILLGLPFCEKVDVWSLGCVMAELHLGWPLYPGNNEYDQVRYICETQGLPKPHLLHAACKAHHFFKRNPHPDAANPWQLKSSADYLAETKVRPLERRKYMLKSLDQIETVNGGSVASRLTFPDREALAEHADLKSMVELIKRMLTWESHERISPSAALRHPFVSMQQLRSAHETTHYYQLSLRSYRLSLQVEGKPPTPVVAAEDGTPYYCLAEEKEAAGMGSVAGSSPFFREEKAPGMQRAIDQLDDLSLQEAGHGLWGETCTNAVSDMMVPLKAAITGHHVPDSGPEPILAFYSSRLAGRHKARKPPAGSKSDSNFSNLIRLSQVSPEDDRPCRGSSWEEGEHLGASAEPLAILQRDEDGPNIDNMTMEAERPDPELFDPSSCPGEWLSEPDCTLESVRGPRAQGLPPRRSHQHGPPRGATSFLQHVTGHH
Summary of the method: (§1)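 Binding-panel profiling at one concentration, 1 uM in DMSO; values are % of DMSO control after subtracting the positive-control floor. Less than 35% means activity on that kinase.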

[2] = molecular target: T2, kinases of the scanMAX Kinase assay panel (Homo sapiens, UniProt P29376); conditions: LTK; 1 uM
T2 construct: purchased DiscoverX Co. (contract measurement) scanMAX Kinase assay panel
Summary of the method: as §1

[3] = molecular target: T3, kinases of the scanMAX Kinase assay panel (Homo sapiens, UniProt P09619); conditions: PDGFRB; 1 uM
T3 construct: purchased DiscoverX Co. (contract measurement) scanMAX Kinase assay panel
Summary of the method: as §1

[4] = molecular target: T4, kinases of the scanMAX Kinase assay panel (Homo sapiens, UniProt Q06418); conditions: kinase TYRO3; 1 uM in DMSO
T4 construct: purchased DiscoverX Co. (contract measurement) scanMAX Kinase assay panel
T4 sequence (Q06418 41-890): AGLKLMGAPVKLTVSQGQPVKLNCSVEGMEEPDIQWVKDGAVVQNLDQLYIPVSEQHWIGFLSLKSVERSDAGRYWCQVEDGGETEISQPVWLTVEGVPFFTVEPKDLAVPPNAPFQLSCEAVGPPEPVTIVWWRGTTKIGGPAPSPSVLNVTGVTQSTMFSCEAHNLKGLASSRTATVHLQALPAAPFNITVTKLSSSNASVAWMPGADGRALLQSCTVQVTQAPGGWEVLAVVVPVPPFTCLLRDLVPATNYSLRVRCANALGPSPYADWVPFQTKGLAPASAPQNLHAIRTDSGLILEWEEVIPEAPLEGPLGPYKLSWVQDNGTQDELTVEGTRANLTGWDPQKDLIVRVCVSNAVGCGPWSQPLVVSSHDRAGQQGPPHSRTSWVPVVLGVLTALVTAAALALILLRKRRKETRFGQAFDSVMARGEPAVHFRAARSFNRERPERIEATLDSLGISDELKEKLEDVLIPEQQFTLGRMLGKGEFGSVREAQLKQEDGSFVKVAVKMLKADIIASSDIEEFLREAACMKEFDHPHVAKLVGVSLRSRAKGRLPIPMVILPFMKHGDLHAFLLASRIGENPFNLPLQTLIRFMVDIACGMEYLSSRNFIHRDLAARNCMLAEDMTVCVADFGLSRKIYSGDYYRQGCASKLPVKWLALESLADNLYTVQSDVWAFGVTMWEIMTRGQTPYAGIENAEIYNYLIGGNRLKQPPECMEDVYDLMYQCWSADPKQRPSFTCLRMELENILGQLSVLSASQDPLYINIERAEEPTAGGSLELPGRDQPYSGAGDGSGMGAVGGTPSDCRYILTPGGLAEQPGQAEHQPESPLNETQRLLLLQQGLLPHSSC
Summary of the method: as §1

[5] = molecular target: T5, kinases of the scanMAX Kinase assay panel (Homo sapiens, UniProt P22694); conditions: PKAC-beta; 1 uM
T5 construct: purchased DiscoverX Co. (contract measurement) scanMAX Kinase assay panel
Summary of the method: as §1

[6] = molecular target: T6, kinases of the scanMAX Kinase assay panel (Homo sapiens, UniProt O00750); conditions: PIK3C2B; 1 uM
T6 construct: purchased DiscoverX Co. (contract measurement) scanMAX Kinase assay panel
Summary of the method: as §1

[7] = molecular target: T7, kinases of the scanMAX Kinase assay panel (Homo sapiens, UniProt P53778); conditions: p38-gamma; 1 uM
T7 construct: purchased DiscoverX Co. (contract measurement) scanMAX Kinase assay panel
T7 sequence (P53778 1-367): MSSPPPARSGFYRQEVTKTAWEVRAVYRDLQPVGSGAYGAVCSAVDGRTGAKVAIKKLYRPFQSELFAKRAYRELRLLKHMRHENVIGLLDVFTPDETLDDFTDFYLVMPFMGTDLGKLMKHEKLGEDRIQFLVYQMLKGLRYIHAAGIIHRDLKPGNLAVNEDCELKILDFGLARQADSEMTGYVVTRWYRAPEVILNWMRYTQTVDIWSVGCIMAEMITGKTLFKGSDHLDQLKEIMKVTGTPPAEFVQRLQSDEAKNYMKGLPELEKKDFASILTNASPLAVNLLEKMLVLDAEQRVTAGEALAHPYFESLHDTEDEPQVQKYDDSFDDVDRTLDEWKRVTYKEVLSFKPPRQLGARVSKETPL
Summary of the method: as §1

T2 sequence (P29376 17-864): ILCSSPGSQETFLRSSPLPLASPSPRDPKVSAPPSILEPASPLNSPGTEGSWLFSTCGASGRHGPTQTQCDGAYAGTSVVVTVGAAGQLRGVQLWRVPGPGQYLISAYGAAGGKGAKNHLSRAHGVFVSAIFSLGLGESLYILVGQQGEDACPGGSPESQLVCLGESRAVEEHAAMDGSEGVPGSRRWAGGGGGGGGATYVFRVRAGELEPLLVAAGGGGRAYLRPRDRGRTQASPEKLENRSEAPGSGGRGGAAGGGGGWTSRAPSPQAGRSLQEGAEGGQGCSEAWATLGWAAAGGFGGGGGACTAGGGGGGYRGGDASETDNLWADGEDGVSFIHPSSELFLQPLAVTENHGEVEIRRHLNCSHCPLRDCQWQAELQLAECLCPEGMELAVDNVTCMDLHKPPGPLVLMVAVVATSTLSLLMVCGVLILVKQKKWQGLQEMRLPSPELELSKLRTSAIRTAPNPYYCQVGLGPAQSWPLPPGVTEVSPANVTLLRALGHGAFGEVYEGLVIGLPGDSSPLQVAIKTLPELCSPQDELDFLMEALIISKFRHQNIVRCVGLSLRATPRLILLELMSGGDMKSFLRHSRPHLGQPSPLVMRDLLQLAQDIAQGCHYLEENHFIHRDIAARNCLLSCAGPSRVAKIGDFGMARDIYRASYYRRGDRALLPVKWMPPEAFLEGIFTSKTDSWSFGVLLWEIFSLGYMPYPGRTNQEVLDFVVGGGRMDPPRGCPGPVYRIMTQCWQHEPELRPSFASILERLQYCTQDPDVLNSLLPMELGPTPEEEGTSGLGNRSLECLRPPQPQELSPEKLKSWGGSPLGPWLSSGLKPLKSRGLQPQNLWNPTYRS
T6 sequence (O00750 whole entry): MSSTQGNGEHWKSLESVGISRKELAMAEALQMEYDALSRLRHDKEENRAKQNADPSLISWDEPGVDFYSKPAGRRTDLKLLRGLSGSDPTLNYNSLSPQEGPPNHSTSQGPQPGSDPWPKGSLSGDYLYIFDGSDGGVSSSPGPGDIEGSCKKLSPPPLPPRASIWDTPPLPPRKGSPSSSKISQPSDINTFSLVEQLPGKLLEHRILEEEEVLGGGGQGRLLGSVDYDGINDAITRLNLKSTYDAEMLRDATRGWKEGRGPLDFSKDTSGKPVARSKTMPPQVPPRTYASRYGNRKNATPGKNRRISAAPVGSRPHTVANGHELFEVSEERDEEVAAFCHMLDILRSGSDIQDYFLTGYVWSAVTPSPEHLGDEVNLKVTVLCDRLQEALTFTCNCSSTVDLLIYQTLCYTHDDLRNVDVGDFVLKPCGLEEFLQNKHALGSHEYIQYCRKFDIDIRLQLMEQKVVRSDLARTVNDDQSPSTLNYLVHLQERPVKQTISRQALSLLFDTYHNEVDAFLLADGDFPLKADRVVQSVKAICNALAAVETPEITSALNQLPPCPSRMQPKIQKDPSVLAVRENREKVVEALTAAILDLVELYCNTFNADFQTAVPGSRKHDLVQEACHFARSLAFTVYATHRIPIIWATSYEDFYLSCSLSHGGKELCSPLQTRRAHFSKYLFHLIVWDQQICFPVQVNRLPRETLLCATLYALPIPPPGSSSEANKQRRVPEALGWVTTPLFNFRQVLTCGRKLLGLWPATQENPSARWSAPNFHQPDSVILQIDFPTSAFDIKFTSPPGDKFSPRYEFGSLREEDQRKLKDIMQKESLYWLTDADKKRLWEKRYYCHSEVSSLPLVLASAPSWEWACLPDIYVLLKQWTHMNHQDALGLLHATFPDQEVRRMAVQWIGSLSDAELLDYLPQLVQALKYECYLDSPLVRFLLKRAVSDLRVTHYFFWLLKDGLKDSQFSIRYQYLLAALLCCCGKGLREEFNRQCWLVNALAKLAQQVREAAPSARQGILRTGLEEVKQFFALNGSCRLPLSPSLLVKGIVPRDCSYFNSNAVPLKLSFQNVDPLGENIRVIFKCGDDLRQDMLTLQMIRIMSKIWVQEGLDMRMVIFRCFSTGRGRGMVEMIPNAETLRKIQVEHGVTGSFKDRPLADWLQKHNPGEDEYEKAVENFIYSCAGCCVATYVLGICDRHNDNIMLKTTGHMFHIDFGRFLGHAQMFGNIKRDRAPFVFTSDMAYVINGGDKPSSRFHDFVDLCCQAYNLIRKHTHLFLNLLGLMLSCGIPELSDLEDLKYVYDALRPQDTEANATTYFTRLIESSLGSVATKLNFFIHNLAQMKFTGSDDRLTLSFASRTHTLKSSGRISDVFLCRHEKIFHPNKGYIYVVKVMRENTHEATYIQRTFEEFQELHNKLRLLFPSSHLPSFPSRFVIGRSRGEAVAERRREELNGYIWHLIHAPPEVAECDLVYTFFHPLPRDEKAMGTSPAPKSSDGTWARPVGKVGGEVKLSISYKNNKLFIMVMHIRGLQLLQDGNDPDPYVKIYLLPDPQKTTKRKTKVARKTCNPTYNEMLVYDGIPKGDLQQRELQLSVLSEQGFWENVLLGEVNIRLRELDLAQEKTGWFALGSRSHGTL
T3 sequence (P09619 33-1106): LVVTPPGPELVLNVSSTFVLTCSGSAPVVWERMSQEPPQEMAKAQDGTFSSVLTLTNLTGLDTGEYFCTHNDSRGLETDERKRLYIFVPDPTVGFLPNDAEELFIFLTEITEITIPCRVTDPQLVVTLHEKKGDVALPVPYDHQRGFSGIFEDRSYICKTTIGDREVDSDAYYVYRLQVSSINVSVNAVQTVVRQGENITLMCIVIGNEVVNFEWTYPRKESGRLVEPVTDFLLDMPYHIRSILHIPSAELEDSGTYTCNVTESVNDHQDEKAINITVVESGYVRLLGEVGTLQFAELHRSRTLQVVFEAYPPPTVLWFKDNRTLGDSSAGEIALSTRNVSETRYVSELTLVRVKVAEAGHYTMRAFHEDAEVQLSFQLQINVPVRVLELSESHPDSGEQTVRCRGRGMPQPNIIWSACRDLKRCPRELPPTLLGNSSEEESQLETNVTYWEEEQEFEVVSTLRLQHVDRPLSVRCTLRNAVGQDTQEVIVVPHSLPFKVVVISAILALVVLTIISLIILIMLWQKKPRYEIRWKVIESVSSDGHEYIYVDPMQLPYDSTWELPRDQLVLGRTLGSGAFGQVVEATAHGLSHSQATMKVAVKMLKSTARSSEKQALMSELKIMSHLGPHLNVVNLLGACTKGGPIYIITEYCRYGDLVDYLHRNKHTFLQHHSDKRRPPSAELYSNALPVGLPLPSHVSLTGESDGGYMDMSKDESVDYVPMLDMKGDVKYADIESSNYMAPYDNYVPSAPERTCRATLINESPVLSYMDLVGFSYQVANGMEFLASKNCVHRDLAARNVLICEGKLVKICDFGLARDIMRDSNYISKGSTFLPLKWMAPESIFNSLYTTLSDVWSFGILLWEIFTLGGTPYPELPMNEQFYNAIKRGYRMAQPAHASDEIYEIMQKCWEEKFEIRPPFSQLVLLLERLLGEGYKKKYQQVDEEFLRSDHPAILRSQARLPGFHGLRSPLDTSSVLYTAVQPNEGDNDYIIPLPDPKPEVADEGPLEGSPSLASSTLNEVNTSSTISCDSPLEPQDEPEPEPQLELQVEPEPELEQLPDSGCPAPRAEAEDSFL

Row | Compound | remaining binding at 1 µM [1] | remaining binding at 1 µM [2] | remaining binding at 1 µM [3] | remaining binding at 1 µM [4] | remaining binding at 1 µM [5] | remaining binding at 1 µM [6] | remaining binding at 1 µM [7]
1 | CNc1nc(Nc2ccc(C(=O)N3CCOCC3)cc2OC)nc2[nH]cc(C#N)c12 [Example 1, 2-((2-methoxy-4-(morpholine-4-carbonyl)phenyl)amino)-4-(methylamino)-7H-pyrrolo[2,3-d]pyrimidine-5-carbonitrile] | 95% | 6.8% | 84% | 100% | 89% | 89% | 70%
2 | CC1(Nc2nc(Nc3cnn([C@H]4CCN(C5COC5)C[C@@H]4F)c3Cl)nc3[nH]cc(C#N)c23)CC1 [Example 52, 2-((5-chloro-1-((3S,4S)-3-fluoro-1-(oxetane-3-yl)piperidine-4-yl)-1H-pyrazole-4-yl)amino)((1-methylcyclopropyl)amino)-7H-pyrrolo[2,3-d]pyrimidine-5-carbonitrile] | 39% | 3.4% | 0.35% | 45% | 95% | 91% | 77%
3 | CCNc1nc(Nc2ccc(C(=O)N3CCC(N4CCOCC4)CC3)cc2OC)nc2[nH]cc(C(F)(F)F)c12 [Example 104, (4-((4-(ethylamino)-5-(trifluoromethyl)-7H-pyrrolo[2,3-d]pyrimidine-2-yl)amino)-3-methoxyphenyl)(4-morpholinopiperidine-1-yl)methanone] | 45% | 3.7% | 60% | 100% | 100% | 75% | 89%
